“Also recorded” adds a separate entry of the source.
System: ONC-T18
Test: Fatty acid production antagonist supplementation of ONC-T18 culture, fatty acid profile by FAME GC-FID
Assay type: cell-based, Thraustochytrium sp. ONC-T18
Conditions: for adrenic acid, lipid as percentage of total fatty acid / arachidic acid, lipid as percentage of total fatty acid / arachidonic acid, lipid as percentage of total fatty acid / behenic acid, lipid as percentage of total fatty acid / docosadienoic acid, lipid as percentage of total fatty acid / docosahexaenoic acid, lipid as percentage of total fatty acid / docosapentaenoic acid n-3, lipid as percentage of total fatty acid / docosapentaenoic acid n-6, lipid as percentage of total fatty acid / eicosadienoic acid, lipid as percentage of total fatty acid / eicosapentaenoic acid, lipid as percentage of total fatty acid / eicosatetraenoic acid, lipid as percentage of total fatty acid / eicosatrienoic acid, lipid as percentage of total fatty acid / eicosenoic acid, lipid as percentage of total fatty acid / heneicosapentaenoic acid, lipid as percentage of total fatty acid / hexacosanoic acid, lipid as percentage of total fatty acid / homo-gamma-linolenic acid, lipid as percentage of total fatty acid / lignoceric acid, lipid as percentage of total fatty acid / margaric acid, lipid as percentage of total fatty acid / myristic acid, lipid as percentage of total fatty acid / myristoleic acid, lipid as percentage of total fatty acid / nervonic acid, lipid as percentage of total fatty acid / oleic acid, lipid as percentage of total fatty acid / palmitic acid, lipid as percentage of total fatty acid / palmitoleic acid, lipid as percentage of total fatty acid / pentadecanoic acid, lipid as percentage of total fatty acid / pentadecenoic acid, lipid as percentage of total fatty acid / stearic acid, lipid as percentage of total fatty acid / vaccenic acid, lipid as percentage of total fatty acid: presence of the antagonist, oleic acid without glucose
Method: Media containing 25 g/l sea salt and 1 g/l yeast extract was autoclaved at 120° C. for 20 minutes. Sterilized glucose was added to the media at a concentration of 9 g/l. Sethoxydim (Supleco) was dissolved in dimethyl sulfoxide at a concentration of 5 mg/ml was then added to the media at to represent a final concentration of 100 µM. 1 ml of a 24 hour pre-culture of ONC-T 18 that had been cultured in the same media was added. Culturing was carried out in a shaker (130 rpm) for four days at room temperature. After the incubation period, cells were harvested by centrifugation at 4300 rpm for 10 minutes. The cell pellets were then freeze-dried, weighed and the oil was extracted from the cells.
(§1) The lipids were extracted and derivatized to fatty acid methyl esters (FAME) for gas chromatography analysis (GC). Transesterification and extraction was done using 200 mg freeze dried cells, with C19:0 as internal standard, added transesterification reaction mix (methanol:hydrochloric acid:chloroform, 10:1:1) mixed and heated at 90° C. for 2 hours, then allowed to cool at room temperature. FAMEs were extracted by adding 1 ml water, and 2 ml hexane:chloroform (4:1), and allow organic and aqueous phases to separate. The organic layer was extracted and treated with 0.5 g of anhydrous sodium sulfate to remove particulates and residual water. The organic solvents were evaporated under a stream of argon. The FAMEs were re-suspended in 5 ml of iso-octane and analyzed by GC-FID. The percent conversion was calculated by dividing the product produced by the sum of (the product produced plus the substrate added) and then multiplying by 100.
Media containing 6 g/l sea salt, 2 g/l yeast extract, and 8 g/l L-glutamic acid monosodium salt hydrate was autoclaved at 120° C. for 20 minutes. Sterilized D+-glucose was then added to this media at a concentration of 40 g/l. Cerulenin dissolved in ethanol at a concentration of 5 mg/ml was added to 250 ml flask and the solvent was evaporated for 1 hour prior to adding the media to the flask. The amount of cerulenin in the flask represented a final concentration of 20 mg/l. ONC-T18 was then added to the medium from a plate culture and culturing occurred in a shaker (130 rpm) at room temperature for four days. After the incubation period, cells were harvested by centrifugation at 4300 rpm for 10 minutes, washed once with distilled water, and then centrifuged again at 4300 rpm for 10 minutes. The cell pellets were then freeze-dried, weighed and the oil was extracted from the cells.
as §1, with “produced+the” for “produced plus the”
Media containing 6 g/l sea salt, 2 g/l yeast extract, and 8 g/l L-glutamic acid monosodium salt hydrate was autoclaved at 120° C. for 20 minutes. Sterilized D+-glucose wad then added at a concentration of 5 g/l or was not added to the media. Oleic acid was added to the media to represent a final concentration of 2 ml/l. […]

| Compound | C16:0 content in ONC-T18, change versus control (in words) (antagonist added to medium) | adrenic acid, lipid as percentage of total fatty acid [%] | arachidic acid, lipid as percentage of total fatty acid [%] | arachidonic acid, lipid as percentage of total fatty acid [%] | behenic acid, lipid as percentage of total fatty acid [%] | docosadienoic acid, lipid as percentage of total fatty acid [%] | docosahexaenoic acid, lipid as percentage of total fatty acid [%] | docosapentaenoic acid n-3, lipid as percentage of total fatty acid [%] | docosapentaenoic acid n-6, lipid as percentage of total fatty acid [%] | eicosadienoic acid, lipid as percentage of total fatty acid [%] | eicosapentaenoic acid, lipid as percentage of total fatty acid [%] | eicosatetraenoic acid, lipid as percentage of total fatty acid [%] | eicosatrienoic acid, lipid as percentage of total fatty acid [%] | eicosenoic acid, lipid as percentage of total fatty acid [%] | heneicosapentaenoic acid, lipid as percentage of total fatty acid [%] | hexacosanoic acid, lipid as percentage of total fatty acid [%] | homo-gamma-linolenic acid, lipid as percentage of total fatty acid [%] | lignoceric acid, lipid as percentage of total fatty acid [%] | margaric acid, lipid as percentage of total fatty acid [%] | myristic acid, lipid as percentage of total fatty acid [%] | further results |
| --- | --- | --- | --- | --- | --- | --- | --- | --- | --- | --- | --- | --- | --- | --- | --- | --- | --- | --- | --- | --- | --- |
| COc1cc(CNC(=O)CCCC/C=C/C(C)C)ccc1O [capsaicin] | decrease in the content of C16:0 | 0.46 | 0.20 | 0.78 | 0.00 | 0.17 | 16.86 | 0.31 | 5.19 | 0.23 | 1.38 | 0.27 | 0.00 | 0.00 | 0.00 | 0.00 | 0.22 | 0.00 | 0.19 | 21.86 | C16:1 content in ONC-T18, change versus control (in words) (antagonist added to medium): increase the content of C16:1; myristoleic acid, lipid as percentage of total fatty acid: 0.28%; nervonic acid, lipid as percentage of total fatty acid: 0.00%; oleic acid, lipid as percentage of total fatty acid: 0.00%; palmitic acid, lipid as percentage of total fatty acid: 24.19%; palmitoleic acid, lipid as percentage of total fatty acid: 17.98%; pentadecanoic acid, lipid as percentage of total fatty acid: 0.91%; pentadecenoic acid, lipid as percentage of total fatty acid: 0.23%; stearic acid, lipid as percentage of total fatty acid: 1.60%; vaccenic acid, lipid as percentage of total fatty acid: 6.67% |
| C/C=C/C/C=C/CCC(=O)[C@H]1O[C@H]1C(N)=O [cerulenin] | increases | 0.00 | 0.41 | 0.30 | 0.11 | 0.14 | 19.97 | 0.23 | 5.83 | 0.17 | 1.17 | 0.36 | 0.00 | 0.19 | 1.24 | 0.23 | 0.20 | 0.00 | 0.74 | 11.03 | DHA accumulated in ONC-T18, change versus control (in words) (antagonist added to medium): increases; also recorded: increase in the content and proportion of DHA; myristoleic acid, lipid as percentage of total fatty acid: 0.00%; nervonic acid, lipid as percentage of total fatty acid: 0.00%; oleic acid, lipid as percentage of total fatty acid: 0.29%; palmitic acid, lipid as percentage of total fatty acid: 48.98%; palmitoleic acid, lipid as percentage of total fatty acid: 2.22%; pentadecanoic acid, lipid as percentage of total fatty acid: 3.23%; pentadecenoic acid, lipid as percentage of total fatty acid: 0.10%; stearic acid, lipid as percentage of total fatty acid: 1.86%; vaccenic acid, lipid as percentage of total fatty acid: 1.24% |

From patent US9023616B2, “Oil producing microbes and method of modification thereof” (DSM Nutritional Products AG, priority 2006, dated 2015)
